Experimental data taken from patent publication US20050137130A1, “Medical treatment” (priority 2001, published 2005).

Test system: Notch signalling in CHO-N2 (N27#11) cells expressing full length human Notch2
Assay: Antagonist assay of Notch signalling from Delta-coated Dynabeads (N27#11 luciferase reporter)
Format: cell-based
Details: soluble protein, N27#11 reporter cells; for inhibition of Notch signalling from Delta beads compared to control: IgG4Fc as control
Method: Fc tagged Notch signalling modulators were immobilised on Streptavidin-Dynabeads (CELLection Biotin Binder Dynabeads [Cat. No. 115.21] at 4.0×10^8 beads/ml from Dynal (UK) Ltd; “beads”) in combination with biotinylated α-IgG-4 (clone JDC14 at 0.5 mg/ml from Pharmingen [Cat. No. 555879]) as follows:
A volume of Dynabeads beads corresponding to the total number required was removed from a stock of beads at 4.0×10^8 beads/ml. This was washed twice with 1 ml of PBS, and resuspended in a final volume of 100 μl of PBS containing a biotinylated anti-IgG4 antibody (clone JDC14 at 0.5 mg/ml from Pharmingen [Cat. No. 555879]) in a sterile Eppendorf tube and placed on shaker at room temperature for 30 minutes. The amount of biotinylated anti-IgG4 antibody needed to coat the beads was calculated relative to the fact that 1×10^7 streptavidin Dynabeads bind a maximum of 2 μg of antibody.
After coating the beads with antibody they were washed 3 times with 1 ml of PBS and finally resuspended in mDelta1-IgG4Fc protein diluted in PBS. Beads were coated in a solution of […] protein (usually 5 μg of mDelta1-IgG4Fc protein was added per 10^7 beads to be coated) and the ligand was allowed to bind to the beads in a 1 ml volume for 2 h at room temperature (or 4° C. overnight) on a rotary shaker to keep the beads in suspension. […]
To set up the bead antagonist assay, N27#11 cells (T80 flask) were removed using 0.02% EDTA solution (Sigma), spun down and resuspended in 10 ml DMEM plus 10%(HI) FCS plus glutamine plus P/S. Ten μl of cells were counted and the cell density was adjusted to 2.0×10^5 cells/ml with fresh DMEM plus 10%(HI) FCS plus glutamine plus P/S. The reporter cells were plated out at 100 μl per well of a 96-well plate (i.e. 2×10^4 cells per well) and were placed in an incubator to settle down for at least 30 minutes. […]
The following day 150 μl of supernatant was then removed from all the wells, 100 μl of SteadyGlo™ luciferase assay reagent (Promega) was added and the resulting mixture left at room temperature for 5 minutes. […] Luminescence was then read in a TopCount™ (Packard) counter. […]

Substance | inhibition of Notch signalling from Delta beads compared to control | inhibition of Notch signalling from Delta beads, compared with hDelta1-IgG4Fc (Delta-coated Dynabeads)
hDelta1-IgG4Fc: fusion protein comprising the extracellular domain of human Delta1 fused to the Fc domain of human IgG4 (SEQ ID NO: 5) | significant inhibition compared to control | 
hJagged1EGF1&2-IgG4Fc: human jagged1 sequence up to the end of EGF2 (leader, amino terminal, DSL, EGF1+2) fused to the Fc domain of human IgG4 (SEQ ID NO: 10) | significant inhibition compared to control | substantially the same inhibition of Notch signalling
